Test results taken from patent publication US7045145B1, “Transdermal contraceptive delivery system and process” (Agile Therapeutics, Inc., priority 1999, dated 2006).

Assay: clinical
Settings: female, human, in vivo

Cmax: > 2 ng/mL
serum levels compared with the level considered necessary for effective contraception in women: exceeded the level (200–600 pg/ml)
SMILES: C#C[C@]1(O)CC[C@H]2[C@@H]3CCC4=CC(=O)CC[C@@H]4[C@H]3CC[C@@]21CC [levonorgestrel]
